Test results from US20130123367A1, “VINYLOGOUS CHALCONE DERIVATIVES AND THEIR MEDICAL USE” (MEDIZINISCHE UNIVERSITAT WIEN, priority 2010, published 2013).
pIC50: −log10 of the molar value. Read-outs that look alike come from different tables or passages of the source.

What was measured:
melanoma cell line 518A2 [1] = assay: Cell proliferation assay using crystal violet, 518A2; format: cell-based; conditions: Homo sapiens, 518A2; crystal violet assay; n = 3; 48 h incubation
Experimental: (§1) For quantification, cells are treated with crystal violet, a dye that stains proteins. After washing away of excess dye, the remaining crystal violet is dissolved in a sodium citrate solution. The solution is analyzed photometrically at 590 nm. The optical density of this solution depends on the concentration of crystal violet and therefore on the amount of cells. […] To reduce effects of evaporation, only the inner 60 wells of 96-well plates (coated with 0.1% gelatine solution for studies with HUVEC) were used for experiments.
(§2) Cells were seeded at a density of 5 000 cells per well in 100 μl growth medium (HUVEC) or 20 000 (HCT116), 15 000 (SW480 and 518A2) or 10 000 (HT29) cells per well in 200 μl growth medium in 55 wells per plate. 5 wells were filled with medium only. Additionally, a 96-well plate with cells in 12 wells and medium in 6 wells was prepared as T0-plate. The next day, additional 98 μl of growth medium were added in every well (only HUVEC).
(§3) Cells were treated with 2 μl of the working solution 24 h after seeding. Final compound concentrations in the well were 10 μM for the first round of screening. The final DMSO concentration was 0.5%. […] After finishing the addition of compounds, the T0-plate was stained with crystal violet for giving the cell density at time point zero. Before staining, the growth medium was poured away. Wells were filled with 50 μl crystal violet solution for 10 min. Then the staining solution was washed away with water. Since crystal violet is environmentally hazardous the waste was collected and disposed in an appropriate manner. After air drying of the plates the crystal violet on the cells was dissolved in 100 μl of sodium citrate solution, and the absorption was measured with a plate reader at 590 nm.
(§4) Mean values were corrected with the absorption of stained medium and the corrected absorption of T0 cells. Cell growth was calculated relative to DMSO control for data comparison. IC50 values (50% inhibition of cell growth) were determined with GraphPad Prism® (Version 4.03) using nonlinear regression (sigmoidal dose-response with variable slope).
(§5) Compounds showing an inhibition of proliferation of more than 50% at a concentration of 10 μM were defined as active, and their IC50-values were determined.

[2] = test system: colon cancer cell line SW480; assay: Cell proliferation assay using crystal violet, SW480; format: cell-based; conditions: Homo sapiens, n = 3, 24 h incubation
Experimental: as §1, §2, §3, §4, §5

HUVEC = assay: Cell proliferation assay using crystal violet, HUVEC; format: cell-based; conditions: Homo sapiens, n = 3, 48 h incubation, read-out: IC50 (nM) HUVEC (converted)
Experimental: as §1, §2, §3
(§6) Mean values were corrected with the absorption of stained medium and the corrected absorption of T0 cells. Cell growth was calculated relative to DMSO control for data comparison.

[3] = test system: colon cancer cell line HT29; assay: Cell proliferation assay using crystal violet, HT29; format: cell-based; conditions: Homo sapiens, HT-29, n = 3, 24 h incubation
Experimental: as §1, §2, §3
as §4, with “slope). […]” for “slope).”

HCT116 cell line = assay: Cell proliferation assay using crystal violet, HCT116; format: cell-based; conditions: Homo sapiens, HCT-116, n = 3, 24 h incubation
Experimental: as §1, §2, §3, §6

melanoma cell line 518A2 [4] = conditions: stated as comparison, no experiment described; read-out: IC50 value of cisplatin, comparison for melanoma cell line 518A2; cited from earlier work
[5] = test system: healthy peripheral blood mononuclear cells (PBMC); assay: Effect on healthy PBMC (CellTiter-Blue viability); conditions: 48 h incubation; one individual; FIG. 8
Experimental: FIG. 8: Effect of compounds 1 and 22 according to the invention as well as the control drugs fludarabine and cyclophosphamide on the viability of healthy peripheral blood mononuclear cells (PBMC) in suspension culture after 48 h incubation. Data points represent one individual calculated in relation to the control. Viability was measured using the CellTiter Blue assay (Promega, Madison, Wis., USA), and cells incubated in solvent only were used as control.
For quantification, cells were treated with resazurin (7-hydroxy-3H-phenoxazin-3-one 10-oxide) as indicator of cell viability. The method is based on the finding that living cells are able to reduce the non-fluorescent blue dye into the pink colored and highly red fluorescent resorufine. After adding the substrate the cells are incubated for 2 to 4 hours. Then, the solution is analyzed at 560 nm Ex/590 nm Em on a fluorometer. Appropriate cell density for seeding and duration of treatment with the substrate were determined in preliminary experiments.
First, cells were seeded in 96 well plates and then growth medium was added to each well to get a final volume of 80 μl. Compounds to be tested were diluted with medium from a 10 mM stock solution in DMSO to get different concentrations, and 20 μl of these solutions were added to the wells. The final DMSO concentration was 0.5%. All treatments and controls were performed in at least triplicates. Cells were incubated at 37° C. and 5% CO2 for 48 h. Then, 20 μl substrate solution was added to the wells, plates were incubated for 3 hours and analyzed.
The impact of the compounds according to the invention on healthy cells was assessed using peripheral blood mononuclear cells (PBMC). Cell viability was tested using the CellTiter-Blue Cell Viability Assay (Promega, Madison, Wis., USA) as described in Example 7.

[6] = test system: CLL cell lines MEC-1 and MEC-2; assay: Annexin V-FITC / propidium iodide staining, apoptosis in CLL cell lines; format: cell-based; conditions: MEC-1 cells, 500 nM, 48 hours (FIG. 4b); called an outlier, not seen after 24 hours
Experimental: Apoptosis was detected using propidium iodide/Annexin V FACS staining (Bender MedSystems).
Annexin V binds to phosphatidylserine which is exposed at the cell surface during execution of apoptosis. First, cells were seeded out at a density of 1.5 to 2.5 million cells per well in 12 well plates and then growth medium was added to each well to get a final volume of 2.5 ml. Compounds to be tested were diluted with medium from a 10 mM stock solution in DMSO to get different concentrations and cells were treated with 25 μl of these solutions. The final DMSO concentration was 0.5%. All treatments and controls were performed twice. Cells were incubated at 37° C. and 5% CO2 for 24 h and 48 h. Then, growth medium was removed by centrifugation, the supernatant discarded and 200 μl of an Annexin V solution were added. After 10 minutes in the dark, cells were washed once with Annexin buffer and the solution removed by centrifugation. The supernatant was discarded again and cells were suspended in 200 μl of a propidium iodide solution. Cells were measured by flow cytometry with a total of 10 000 events. Data were analyzed with CellQuest Pro™.
Compounds 1 and 22 were also tested on the CLL cell lines MEC-1 and MEC-2 in comparison with fludarabine and cyclophosphamide, two compounds used in the treatment of hematological malignancies (MEC-1 is a fludarabine-resistant cell line).

| SMILES | IC50 (HCT116 cell line) [nM] | IC50 (HUVEC) [nM] | other results |
| --- | --- | --- | --- |
| CCOc1ccccc1C(=O)/C=C/c1ccc(OC)c2ccccc12 |  |  | IC50 (melanoma cell line 518A2 [1]): > 10000 nM; IC50 [2]: > 10000 nM |
| COc1ccccc1/C=C/C=C/C(=O)c1ccc(Cl)c([N+](=O)[O-])c1 |  | 5630 |  |
| COc1cc(C(=O)/C=C/C=C/c2ccccc2SC)cc(OC)c1OC |  |  | IC50 [3]: 240 nM; IC50 (melanoma cell line 518A2 [1]): 160 nM; IC50 [2]: 260 nM |
| COc1cccc(/C=C/C=C/C(=O)c2cc(OC)c(OC)c(OC)c2)c1 | 4500 | 3210 |  |
| N.N.[Cl][Pt][Cl] [cisplatin] |  |  | pIC50 (melanoma cell line 518A2 [4]): ~5.00 |
| COc1ccccc1/C=C/C=C/C(=O)c1cc(OC)c(O)c(OC)c1 |  |  | IC50 [3]: 5790 nM; IC50 (melanoma cell line 518A2 [1]): 2750 nM; IC50 [2]: 2680 nM |
| COc1ccc(C(=O)/C=C/c2ccc(OC)c3ccccc23)cc1OC | > 10000 | > 10000 |  |
| Nc1nc(F)nc2c1ncn2[C@@H]1O[C@H](CO)[C@@H](O)[C@@H]1O [fludarabine, reference compound] |  |  | viability of healthy PBMC in suspension culture (toxicity) [5]: the most toxic of the tested compounds |
| COc1cc(C(=O)/C=C/C=C/c2ccccc2)cc(OC)c1OC | 4340 |  |  |
| COc1cc(C(=O)/C=C/C=C/c2ccccc2Cl)cc(OC)c1OC |  | 1770 |  |
| O=P1(N(CCCl)CCCl)NCCCO1 (stereo not drawn) [cyclophosphamide, reference compound] |  |  | apoptosis induction [6]: 40%; viability of healthy PBMC in suspension culture (toxicity) [5]: did not influence viability |

Now from value to compound, other results behind:

| IC50 (HCT116 cell line) [nM] | SMILES | IC50 (HUVEC) [nM] | other results |
| --- | --- | --- | --- |
| 6850 | COc1ccccc1C(=O)/C=C/c1ccc(OC)c2ccccc12 |  |  |
| > 10000 | COc1cccc(/C=C/C=C/C(=O)c2ccccc2OC)c1 | 8810 |  |
| 804 | C=Cc1ccccc1/C=C/C=C/C(=O)c1ccccc1OC | 760 |  |
